Data published in ChEMBL document CHEMBL1153314, “[2-(4-Phenyl-4-piperidinyl)ethyl]amine based CCR5 antagonists: derivatizations at the N-terminal of the piperidine ring” (Bioorg Med Chem Lett, 2009).

Experiments:
in vivo [1] = conditions: rat, 1 mg/kg
in vivo [2] = conditions: rat, 1 mg/kg; remark: listed apart in the source
in vivo [3] = conditions: rat, po, 1 mg/kg
in vivo [4] = conditions: rat, 1 mg/kg; remark: listed apart in the source

SMILES	Vd (in vivo [1]) [L/kg]	clearance (in vivo [2]) [mL/min/kg]	bioavailability (in vivo [3]) [%]	half-life (in vivo [4]) [h]
Cc1nc2ccccc2n1[C@H]1C[C@H]2CC[C@@H](C1)N2CCC1(c2ccccc2)CCN(C(C(=O)O)c2ccccc2)CC1 (some centres not stated)	3.5	117	0	
CNC(=O)C(c1ccc(F)cc1)N1CCC(CCN2[C@@H]3CC[C@H]2C[C@@H](n2c(C)nc4ccccc42)C3)(c2cccc(F)c2)CC1 (some centres not stated)	16.5	43	37	6.1
